{"source": "patent US20160335412A1", "about": "“SYSTEMS AND METHODS FOR PREDICTING AND ADJUSTING THE DOSAGE OF MEDICINES IN INDIVIDUAL PATIENTS” (priority 2013, published 2016)", "origin": "cited, not measured here"}
{"smiles": "Cc1cc2c(s1)Nc1ccccc1N=C2N1CCN(C)CC1", "note": "[olanzapine]", "values": [{"measurement": "'therapeutic range' of plasma drug concentrations", "setting": "has been established, treatment of schizophrenia", "result": "20 to 80", "unit": "ng/mL"}]}
{"smiles": "Cn1c(=O)c2[nH]cnc2n(C)c1=O", "note": "[theophylline]", "values": [{"measurement": "'therapeutic range' of plasma concentrations", "setting": "documented in the literature, lower limit = no response in most patients, upper limit = toxicity in most", "result": "5-10 micrograms per ml plasma"}]}
